# According to patent US9096591B2, “Tetracyclic compounds” (Medivation Technologies, Inc., priority 2007, dated 2015):
# Columns and labels:
# Conditions in all cases: percent inhibition of specific binding
# [1] = molecular target: T1, human recombinant serotonin (5-Hydroxytryptamine) 5-HT6 receptor (Homo sapiens, UniProt P50406); test: Serotonin 5-HT6 radioligand binding ([3H]LSD); design: Inhibition of ligand binding, Ser. 5-HT6: concentration or dose not given beside the values
# T1 construct: expressed in transfected cells; host or cells: human HeLa cells
# T1 sequence (P50406 whole entry): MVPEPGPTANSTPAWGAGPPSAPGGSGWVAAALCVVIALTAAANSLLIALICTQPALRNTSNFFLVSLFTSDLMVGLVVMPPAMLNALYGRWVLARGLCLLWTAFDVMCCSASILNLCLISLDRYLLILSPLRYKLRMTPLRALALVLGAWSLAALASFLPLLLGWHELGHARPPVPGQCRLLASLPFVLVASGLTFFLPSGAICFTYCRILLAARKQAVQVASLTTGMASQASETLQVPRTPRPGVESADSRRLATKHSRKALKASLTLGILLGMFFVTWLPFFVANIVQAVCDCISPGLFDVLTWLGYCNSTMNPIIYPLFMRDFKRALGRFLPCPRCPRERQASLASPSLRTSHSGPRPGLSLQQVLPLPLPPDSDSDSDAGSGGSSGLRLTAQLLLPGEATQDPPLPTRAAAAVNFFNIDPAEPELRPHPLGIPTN
# From the text: Receptor proteins were filtered and washed, the filters were then counted to determine [3H]LSD specifically bound. […] Biochemical assay results are presented as the percent inhibition of specific binding in Table 6.
# [2] = molecular target: T2, human recombinant adrenergic α1D receptor (Homo sapiens, UniProt P25100); test: Adrenergic α1D radioligand binding ([3H]Prozosin); design: Inhibition of ligand binding, Adren. alpha1D: concentration or dose not given beside the values
# T2 construct: expressed in transfected cells; host or cells: HEK-293 cells
# T2 sequence (P25100 1-572): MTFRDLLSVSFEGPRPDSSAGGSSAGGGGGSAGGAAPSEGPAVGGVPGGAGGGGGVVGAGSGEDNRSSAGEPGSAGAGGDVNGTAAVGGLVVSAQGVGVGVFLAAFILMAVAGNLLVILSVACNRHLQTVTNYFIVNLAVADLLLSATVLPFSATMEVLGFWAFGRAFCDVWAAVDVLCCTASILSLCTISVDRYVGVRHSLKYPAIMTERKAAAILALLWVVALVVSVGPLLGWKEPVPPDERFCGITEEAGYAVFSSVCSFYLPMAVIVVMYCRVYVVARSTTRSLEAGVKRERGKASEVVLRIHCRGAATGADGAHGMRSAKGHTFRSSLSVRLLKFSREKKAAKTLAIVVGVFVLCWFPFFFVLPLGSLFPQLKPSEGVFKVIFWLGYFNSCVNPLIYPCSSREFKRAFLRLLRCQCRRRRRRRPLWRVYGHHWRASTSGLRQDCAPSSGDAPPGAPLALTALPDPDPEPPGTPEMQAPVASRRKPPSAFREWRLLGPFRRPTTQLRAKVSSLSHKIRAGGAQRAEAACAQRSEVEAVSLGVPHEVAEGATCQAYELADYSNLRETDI
# Procedure: Compounds of invention were incubated with 0.6 nM [^3H]Prozosin for 60 minutes at 25° C. Non-specific binding was estimated in the presence of 10 μM phentolamine. Receptor proteins were filtered and washed, the filters were then counted to determine [^3H]Prozosin specifically bound. […] Biochemical assay results are presented as the percent inhibition of specific binding in Table 6.
# [3] = molecular target: T3, human recombinant adrenergic α2A receptor (Homo sapiens, UniProt P08913); test: Adrenergic α2A radioligand binding ([3H]MK-912); design: Inhibition of ligand binding, Adren. alpha2A: concentration or dose not given beside the values
# T3 construct: expressed in transfected cells; host or cells: insect Sf9 cells
# T3 sequence (P08913 1-465): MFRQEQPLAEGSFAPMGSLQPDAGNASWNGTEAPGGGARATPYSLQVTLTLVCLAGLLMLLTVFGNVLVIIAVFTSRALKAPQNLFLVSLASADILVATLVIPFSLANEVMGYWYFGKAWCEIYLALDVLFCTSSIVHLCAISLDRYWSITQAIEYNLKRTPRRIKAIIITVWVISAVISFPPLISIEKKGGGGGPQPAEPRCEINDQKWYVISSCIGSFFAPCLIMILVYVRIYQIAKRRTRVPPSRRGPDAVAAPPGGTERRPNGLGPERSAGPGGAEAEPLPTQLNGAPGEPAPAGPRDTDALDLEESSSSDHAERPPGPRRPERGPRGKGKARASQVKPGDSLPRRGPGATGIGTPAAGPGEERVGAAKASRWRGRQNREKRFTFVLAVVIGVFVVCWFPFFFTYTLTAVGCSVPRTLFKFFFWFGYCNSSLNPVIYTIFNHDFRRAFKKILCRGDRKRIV
# How it was run: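 Membranes from Sf9 cells expressing the receptor were incubated with 1 nM [3H]MK-912 for 60 minutes at 25° C in 50 mM Tris-HCl pH 7.4, 12.5 mM MgCl2, 2 mM EDTA. 10 μM WB-4101 defined non-specific binding. Values are percent inhibition of specific bound radioactivity after filtration.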
SMILES,"Inhibition of ligand binding, Ser. 5-HT6 [1] [%]","Inhibition of ligand binding, Adren. alpha1D [2] [%]","Inhibition of ligand binding, Adren. alpha2A [3] [%]"
Cc1ccc2c(c1)c1c(n2CCc2cnccn2)CCN(C)C1 [Compound 62],83,51,51
CN1CCc2c(c3cc(Cl)ccc3n2CCN2CCCCC2)C1 [Compound 189],66,28,76
CC(C)N1CCN(C(=O)Cn2c3c(c4cc(Cl)ccc42)CN(C)CC3)CC1 [Compound 248],67,26,27
CN1CCc2c(c3cc(F)ccc3n2CCc2ccc(Cl)cc2)C1 [Compound 249],101,65,97
Cc1ccc2c(c1)c1c(n2CC(=O)N2CCC(C)CC2)CCN(C)C1 [Compound 251],7,14,2
"Cc1ccc(CCn2c3c(c4cc(C(=O)O)ccc42)CN(C)CC3)cn1 [Compound 256, 2-Methyl-5-(2-(6-methylpyridin-3-yl)ethyl)-2,3,4,5-tetrahydro-1H-pyrido[4,3-b]indole-8-carboxylic acid]",2,−10,−7
"Cc1ccc2c(c1)c1c(n2CC(=O)N2CCCC2)CCN(C)C1 [Compound 257, 2-(1,2,3,4-tetrahydro-2,8-dimethylpyrido[4,3-b]indol-5-yl)-1-(pyrrolidin-1-yl)ethanone]",2,3,−4
Cc1ccc(CCn2c3c(c4cc(CO)ccc42)CN(C)CC3)cn1 [Compound 263],31,39,34
"CN1CCc2c(c3cc(Cl)cc(F)c3n2CCc2ccc(C(F)(F)F)nc2)C1 [Compound 338, 8-chloro-6-fluoro-5-(2-(6-(trifluoromethyl)pyridin-3-yl)ethyl)-2,3,4,5-tetrahydro-2-methyl-1H-pyrido[4,3-b]indole]",66,83,99
"CN1CCc2c(c3cc(OC(F)(F)F)ccc3n2CCc2ccc(C(F)(F)F)nc2)C1 [Compound 341, 5-(2-(6-(trifluoromethyl)pyridin-3-yl)ethyl)-2,3,4,5-tetrahydro-2-methyl-8-(trifluoromethoxy)-1H-pyrido[4,3-b]indole]",17,−3,36
"CC(C)c1ccc2c(c1)c1c(n2CCc2ccc(C(F)(F)F)nc2)CCN(C)C1 [Compound 342, 8-Isopropyl-2-methyl-5-[2-(6-trifluoromethyl-pyridin-3-yl)-ethyl]-2,3,4,5-tetrahydro-1H-pyrido[4,3-b]indole]",72,91,94
CN1CCc2c(c3cc(Cl)c(F)cc3n2CCc2ccc(C(F)(F)F)nc2)C1 [Compound 343],57,61,90
"OC1CCC(N2CCc3c(c4cc(Cl)ccc4n3CCc3ccc(C(F)(F)F)nc3)C2)C1 (stereo not drawn) [Compound 351, 3-(8-chloro-5-(2-(6-(trifluoromethyl)pyridin-3-yl)ethyl)-3,4-dihydro-1H-pyrido[4,3-b]indol-2(5H)-yl)cyclopentanol]",−4,61,8
"Cc1ccc2c(n1)c1c(n2CCc2ccc(C(F)(F)F)nc2)CCN(C)C1 [Compound 353, 9-aza-2,8-dimethyl-5-(2-(6-(trifluoromethyl)pyridin-3-yl)ethyl)-2,3,4,5-tetrahydro-1H-pyrido[4,3-b]indole]",0,11,8
"CCc1ccc2c(c1)c1c(n2CCc2ccc(C(F)(F)F)nc2)CCN(C)C1 [Compound 358, 8-Ethyl-2-methyl-5-[2-(6-trifluoromethyl-pyridin-3-yl)-ethyl]-2,3,4,5-tetrahydro-1H-pyrido[4,3-b]indole]",65,95,96
"CCc1ccc(CCn2c3c(c4cc(C)ccc42)CN(C)CC3)cn1 [Compound 359, 5-[2-(6-Ethyl-pyridin-3-yl)-ethyl]-2,8-dimethyl-2,3,4,5-tetrahydro-1H-pyrido[4,3-b]indole]",95,95,77
"Cc1ncc(CCn2c3c(c4cc(Cl)ccc42)CN(C)CC3)cn1 [Compound 361, 8-Chloro-2-methyl-5-[2-(2-methyl-pyrimidin-5-yl)-ethyl]-2,3,4,5-tetrahydro-1H-pyrido[4,3-b]indole]",76,87,30
"CCc1ccc2c(c1)c1c(n2CCc2cnc(C)nc2)CCN(C)C1 [Compound 362, 8-Ethyl-2-methyl-5-[2-(2-methyl-pyrimidin-5-yl)-ethyl]-2,3,4,5-tetrahydro-1H-pyrido[4,3-b]indole]",61,76,14
"Cc1cnc(CCn2c3c(c4cc(Cl)ccc42)CN(C)CC3)cn1 [Compound 363, 8-Chloro-2-methyl-5-[2-(5-methyl-pyrazin-2-yl)-ethyl]-2,3,4,5-tetrahydro-1H-pyrido[4,3-b]indole]",83,73,59
"CCc1ccc2c(c1)c1c(n2CCc2cnc(C)cn2)CCN(C)C1 [Compound 364, 8-Ethyl-2-methyl-5-[2-(5-methyl-pyrazin-2-yl)-ethyl]-2,3,4,5-tetrahydro-1H-pyrido[4,3-b]indole]",70,77,65
"Cc1cnc(CCn2c3c(c4cc(C(C)C)ccc42)CN(C)CC3)cn1 [Compound 369, 8-Isopropyl-2-methyl-5-[2-(5-methyl-pyrazin-2-yl)-ethyl]-2,3,4,5-tetrahydro-1H-pyrido[4,3-b]indole]",23,51,25
"Cc1ncc(CCn2c3c(c4cc(C(C)C)ccc42)CN(C)CC3)cn1 [Compound 370, 8-Isopropyl-2-methyl-5-[2-(2-methyl-pyrimidin-5-yl)-ethyl]-2,3,4,5-tetrahydro-1H-pyrido[4,3-b]indole]",64,71,35
